{
  "source": "patent US7811352B2",
  "about": "“Fertilizer compositions and methods of using” (priority 2005, dated 2010)",
  "assay_type_in_all_cases": "in vivo",
  "key": {"[1]": {"system": "creeping bentgrass for greens", "assay": "Phytotoxicity (% burn), creeping bentgrass for greens (Example 12)", "text": "In this Example, the effect of a fertilizer comprising lysine on turfgrass growth was examined. The effects of lysine (HCl) and LIQUID LYSINE on a common type of golf course greens quality turfgrass (creeping bentgrass for greens) were compared with those of CoRoN® brand fertilizer (commercially available from Helena Chemical Co., Collierville, Tenn.).\nNine fertilizer treatments comprising three concentrations of each fertilizer composition (Corono® (N—P—K, 14-2-14), LIQUID LYSINE (N—P—K, 10-2-1), and lysine (HCl) (N—P—K, 15-2-1)) were prepared and applied to 3 replications of creeping bentgrass for use on golf course greens. The lysine (HCl) (250 g) was dissolved in water (500 mL) prior to application. Each fertilizer treatment was applied in concentrations of 0.7 g N/m^2, 1.4 g N/m^2, and 2.8 g N/m^2. All applications were made using an Ortho Heavy Duty hand pump sprayer with all products being mixed with 126 mL of water for application. Plot size was 2 ft×6 ft set up as a randomized complete block. Irrigation was applied following application. Plots were rated for turfgrass quality and color (scale of 1-10 where 10=dark green turf, 1=dead/brown turf, and 6minimally acceptable turf) and phytotoxicity (% bum) throughout the study period. Quality, color, and phytotoxicity were measured on day 7, day 14, day 2I1, day 28, day 35, and day 42 after application. All data was subject to statistical analysis and significant means were determined."}, "[2]": {"system": "Bermuda grass", "assay": "Turfgrass quality and color ratings, Bermuda grass golf course fairways (Example 13)", "conditions": "scale 1-10", "procedure": "In this Example, the effect of a fertilizer comprising lysine on turfgrass growth was examined. The effects of lysine (HCl) and LIQUID LYSINE on a common type of golf course fairway quality turfgrass (Bermuda green) were compared with those of CoRoN® brand fertilizer.\nSix fertilizer treatments comprising two concentrations of each fertilizer composition (Coron® (N—P—K, 14-2-14), LIQUID LYSINE (N—P—K, 10-2-1), and lysine (HCl) (N—P—K, 15-2-1)) were prepared and applied to 3 replications of Bermuda grass for use on golf course fairways. The lysine (HCl) was applied as a granular using a Scotts 2 foot drop spreader on a setting of 4.5. The solutions of LIQUID LYSINE and Coran were applied using a Birchmeier backpack sprayer with a 5 foot spray pattern. Each fertilizer treatment was applied in concentrations 3.0 lb N/1000 ft^2 and 6.0 lb N/1000 ft^2. Plot size was 5 ft×60 ft set up as a randomized complete block. Irrigation was applied following application, Plots were rated for turfgrass quality and color (scale of 1-10 where 10=dark green turf 1=dead/brown turf and 6=minimally acceptable turf) and phytotoxicity (% burn) throughout the study period and compared with two untreated plots. […] All data was subject to statistical analysis and significant means were determined."}, "[3]": {"system": "fairway height, creeping bentgrass", "assay": "Color rating of fairway height creeping bentgrass after fertilization (Example 6)", "conditions": "about two weeks after application", "procedure": "(§1) In this Example, the efficacy of fertilizers on fairway height, creeping bentgrass was examined. Fertilizer compositions according to several embodiments of the present disclosure were prepared and compared to the commercial fertilizer products, urea 46-0-0 (granular) fertilizer, Lebanon fertilizer 21-0-12 (granular, commercially available from Lebanon Seaboard Corporation, Lebanon, Pa.) and Milorganite 6-2-0 (granular, commercially available from Milorganite, Milwaukee, Wis.). The fertilizer compositions were applied to turf prior to winter dormancy at a rate equivalent to supplying about 1.0 pounds of nitrogen (N) per 1000 square feet. Each of the fertilizer compositions were applied at substantially equal rates of lbs of nitrogen (N) per 1000 square feet. Table 3 illustrates the response of fairway height, creeping bentgrass to fertilization using various exemplary fertilizers of the present invention, taken about two weeks after application of the fertilizer. The letters in the Color and Injury columns correspond to Duncan's Multiple Range Test. Numbers (means) in a column followed by the same letter are not statistically different at P=0.05."}, "[4]": {"system": "fairway height, creeping bentgrass", "assay": "Injury rating of fairway height creeping bentgrass after fertilization (Example 6)", "conditions": "about two weeks after application", "procedure": "as §1"}, "[5]": {"conditions": "Rate 3.0 lb N/1000 ft^2, Day 12"}, "[6]": {"conditions": "Rate 3.0 lb N/1000 ft^2, Day 19"}, "[7]": {"conditions": "Rate 3.0 lb N/1000 ft^2, Day 26"}, "[8]": {"conditions": "Rate 3.0 lb N/1000 ft^2, Day 33"}, "[9]": {"conditions": "Rate 3.0 lb N/1000 ft^2, Day 40"}, "[10]": {"conditions": "Rate 3.0 lb N/1000 ft^2, Day 47"}, "[11]": {"conditions": "Rate 6.0 lb N/1000 ft^2, Day 12"}, "[12]": {"conditions": "Rate 6.0 lb N/1000 ft^2, Day 19"}, "[13]": {"conditions": "Rate 6.0 lb N/1000 ft^2, Day 26"}, "[14]": {"conditions": "Rate 6.0 lb N/1000 ft^2, Day 33"}, "[15]": {"conditions": "Rate 6.0 lb N/1000 ft^2, Day 40"}, "[16]": {"conditions": "Rate 6.0 lb N/1000 ft^2, Day 47"}, "[17]": {"conditions": "1.09 Lbs. product/1000 square feet"}, "[18]": {"conditions": "2.17 Lbs. product/1000 square feet"}, "[19]": {"conditions": "6.51 Lbs. product/1000 square feet"}},
  "note": "Marks after values point to notes of the source that are not given here.",
  "data": [
    {"smiles": "Cl.NCCCC[C@H](N)C(=O)O", "note": "[Lys (HCl) 15% N, L-lysine monohydrochloride]", "values": [
      {"measurement": "Phytotoxicity (% Burn) - Creeping Bentgrass", "setting": "[1]; Rate 0.7 gN/m^2, Day 7", "value": 2.3, "unit": "b %"},
      {"measurement": "Phytotoxicity (% Burn) - Creeping Bentgrass", "setting": "[1]; Rate 0.7 gN/m^2, Day 14", "value": 15.0, "unit": "c %"},
      {"measurement": "Phytotoxicity (% Burn) - Creeping Bentgrass", "setting": "[1]; Rate 0.7 gN/m^2, Day 21", "value": 10.0, "unit": "d %"},
      {"measurement": "Phytotoxicity (% Burn) - Creeping Bentgrass", "setting": "[1]; Rate 0.7 gN/m^2, Day 28", "value": 6.7, "unit": "b %"},
      {"measurement": "Phytotoxicity (% Burn) - Creeping Bentgrass", "setting": "[1]; Rate 0.7 gN/m^2, Day 35", "value": 3.3, "unit": "d %"},
      {"measurement": "Phytotoxicity (% Burn) - Creeping Bentgrass", "setting": "[1]; Rate 0.7 gN/m^2, Day 42", "value": 1.7, "unit": "c %"},
      {"measurement": "Phytotoxicity (% Burn) - Creeping Bentgrass", "setting": "[1]; Rate 1.4 gN/m^2, Day 7", "value": 15.0, "unit": "c %"},
      {"measurement": "Phytotoxicity (% Burn) - Creeping Bentgrass", "setting": "[1]; Rate 1.4 gN/m^2, Day 14", "value": 58.3, "unit": "b %"},
      {"measurement": "Phytotoxicity (% Burn) - Creeping Bentgrass", "setting": "[1]; Rate 1.4 gN/m^2, Day 21", "value": 51.7, "unit": "b %"},
      {"measurement": "Phytotoxicity (% Burn) - Creeping Bentgrass", "setting": "[1]; Rate 1.4 gN/m^2, Day 28", "value": 18.3, "unit": "ab %"},
      {"measurement": "Phytotoxicity (% Burn) - Creeping Bentgrass", "setting": "[1]; Rate 1.4 gN/m^2, Day 35", "value": 56.7, "unit": "b %"},
      {"measurement": "Phytotoxicity (% Burn) - Creeping Bentgrass", "setting": "[1]; Rate 1.4 gN/m^2, Day 42", "value": 31.7, "unit": "b %"},
      {"measurement": "Phytotoxicity (% Burn) - Creeping Bentgrass", "setting": "[1]; Rate 2.8 gN/m^2, Day 7", "value": 36.7, "unit": "a %"},
      {"measurement": "Phytotoxicity (% Burn) - Creeping Bentgrass", "setting": "[1]; Rate 2.8 gN/m^2, Day 14", "value": 78.3, "unit": "a %"},
      {"measurement": "Phytotoxicity (% Burn) - Creeping Bentgrass", "setting": "[1]; Rate 2.8 gN/m^2, Day 21", "value": 73.3, "unit": "a %"},
      {"measurement": "Phytotoxicity (% Burn) - Creeping Bentgrass", "setting": "[1]; Rate 2.8 gN/m^2, Day 28", "value": 35.0, "unit": "a %"},
      {"measurement": "Phytotoxicity (% Burn) - Creeping Bentgrass", "setting": "[1]; Rate 2.8 gN/m^2, Day 35", "value": 83.3, "unit": "a %"},
      {"measurement": "Phytotoxicity (% Burn) - Creeping Bentgrass", "setting": "[1]; Rate 2.8 gN/m^2, Day 42", "value": 78.3, "unit": "a %"},
      {"measurement": "Color Ratings - Bermuda Grass", "setting": "[2]; Rate 3.0 lb N/1000 ft^2, Day 7", "value": 5.7, "unit": "ab"},
      {"measurement": "Quality Ratings - Bermuda Grass", "setting": "[2]; Rate 3.0 lb N/1000 ft^2, Day 7", "value": 6.7, "unit": "a"},
      {"measurement": "Color Ratings - Bermuda Grass", "setting": "[2]; [5]", "value": 6.0, "unit": "b"},
      {"measurement": "Quality Ratings - Bermuda Grass", "setting": "[2]; [5]", "value": 7.3, "unit": "ab"},
      {"measurement": "Color Ratings - Bermuda Grass", "setting": "[2]; [6]", "value": 6.7, "unit": "a"},
      {"measurement": "Quality Ratings - Bermuda Grass", "setting": "[2]; [6]", "value": 7.3, "unit": "ab"},
      {"measurement": "Color Ratings - Bermuda Grass", "setting": "[2]; [7]", "value": 7.3, "unit": "a"},
      {"measurement": "Quality Ratings - Bermuda Grass", "setting": "[2]; [7]", "value": 7.7, "unit": "ab"},
      {"measurement": "Color Ratings - Bermuda Grass", "setting": "[2]; [8]", "value": 7.7, "unit": "ab"},
      {"measurement": "Quality Ratings - Bermuda Grass", "setting": "[2]; [8]", "value": 8.0, "unit": "a"},
      {"measurement": "Color Ratings - Bermuda Grass", "setting": "[2]; [9]", "value": 7.0, "unit": "b"},
      {"measurement": "Quality Ratings - Bermuda Grass", "setting": "[2]; [9]", "value": 7.0, "unit": "b"},
      {"measurement": "Color Ratings - Bermuda Grass", "setting": "[2]; [10]", "value": 7.0, "unit": "bc"},
      {"measurement": "Quality Ratings - Bermuda Grass", "setting": "[2]; [10]", "value": 7.3, "unit": "ab"},
      {"measurement": "Color Ratings - Bermuda Grass", "setting": "[2]; Rate 6.0 lb N/1000 ft^2, Day 7", "value": 5.3, "unit": "ab"},
      {"measurement": "Quality Ratings - Bermuda Grass", "setting": "[2]; Rate 6.0 lb N/1000 ft^2, Day 7", "value": 6.7, "unit": "a"},
      {"measurement": "Color Ratings - Bermuda Grass", "setting": "[2]; [11]", "value": 6.7, "unit": "a"},
      {"measurement": "Quality Ratings - Bermuda Grass", "setting": "[2]; [11]", "value": 7.3, "unit": "ab"},
      {"measurement": "Color Ratings - Bermuda Grass", "setting": "[2]; [12]", "value": 7.0, "unit": "a"},
      {"measurement": "Quality Ratings - Bermuda Grass", "setting": "[2]; [12]", "value": 7.3, "unit": "ab"},
      {"measurement": "Color Ratings - Bermuda Grass", "setting": "[2]; [13]", "value": 7.7, "unit": "a"},
      {"measurement": "Quality Ratings - Bermuda Grass", "setting": "[2]; [13]", "value": 7.7, "unit": "ab"},
      {"measurement": "Color Ratings - Bermuda Grass", "setting": "[2]; [14]", "value": 7.7, "unit": "ab"},
      {"measurement": "Quality Ratings - Bermuda Grass", "setting": "[2]; [14]", "value": 7.7, "unit": "a"},
      {"measurement": "Color Ratings - Bermuda Grass", "setting": "[2]; [15]", "value": 7.3, "unit": "ab"},
      {"measurement": "Quality Ratings - Bermuda Grass", "setting": "[2]; [15]", "value": 7.0, "unit": "b"},
      {"measurement": "Color Ratings - Bermuda Grass", "setting": "[2]; [16]", "value": 7.3, "unit": "ab"},
      {"measurement": "Quality Ratings - Bermuda Grass", "setting": "[2]; [16]", "value": 7.7, "unit": "a"}
    ]},
    {"smiles": "NC(N)=O", "note": "[Urea, urea, reference compound]", "values": [
      {"measurement": "Color 1-9 (9 = dark green)", "setting": "[3]; [17]", "value": 6.7},
      {"measurement": "Color 1-9 (9 = dark green)", "setting": "[3]; [18]", "value": 7.0},
      {"measurement": "Color 1-9 (9 = dark green)", "setting": "[3]; [19]", "value": 7.7},
      {"measurement": "Injury 1-9 (9 = no injury)", "setting": "[4]; [17]", "value": "8.7^a,b"},
      {"measurement": "Injury 1-9 (9 = no injury)", "setting": "[4]; [18]", "value": "7.7^a,b"},
      {"measurement": "Injury 1-9 (9 = no injury)", "setting": "[4]; [19]", "value": "8.7^a,b"}
    ]}
  ]
}
